Reference: patent publication US4457864A, “Synthetic analogues of α-melanotropin” (University Patents, Inc., priority 1981, dated 1984)
Entries after “also recorded” stand apart in the source; their conditions may differ. Like-named read-outs stand apart in the source and are kept apart here.

Legend:
[1] = literature reports, cited from earlier work
frog (Rana pipiens) = assay: in vivo skin darkening (reflectance) in frogs after a single subcutaneous injection
Excerpt: (§1) [Nle^4, D-Phe^7 ]-α-MSH was examined for its biological effects on melanosome dispersion in vivo, using the frog (Rana pipiens), and the lizard (Anolis carolinensis). See, Hadley, et al. Science, 213, pp. 1025-1027 (1981).
Frogs of both sexes were placed in white plastic containers with a small amount of water under overhead illumi-nation. Under these conditions, the animals became light green in color, presumably because they were not releasing any endogenous α-MSH. Forty-eight hours later, light reflectance from the dorsal surface of the animals was measured with a Photovolt reflectometer. At this time, the frogs were injected subcutaneously with Ringer solution (controls) or Ringer solutions containing α-MSH, [Nle^4 ]-α-MSH, or [Nle^4, D-Phe^7 ]-α-MSH (100 μl of a 10^-4 M solution per 10 g of body weight) to provide a final body concentration of approximately 18 μg/10 g. Subsequent reflectance values were taken at 2- to 3-day intervals for 6 weeks.

[2] = resistance to serum proteolytic enzyme degradation, residual activity by in vitro frog skin bioassay; assay type: in vitro ADME; details: 10 nM peptide, 37° C., Ham's F-10 with 10% horse serum and 2% fetal calf serum, up to 72 hours; FIG. 3
Method: Synthetic α-MSH, [Nle^4 ]-α-MSH and [Nle^4, D-Phe^7 ]-α-MSH were incubated (37° C.) under sterile conditions in Corning flasks containing Ham's F-10 media containing 10% horse serum and 2% fetal calf serum. Samples of the media containing the peptides (10 nM) were removed at time zero and at 24, 48 and 72 hours. The samples were immediately frozen and assayed for biological activity using the in vitro frog skin bioassay.

[3] = system: adenylate cyclase in Cloudman S-91 mouse melanoma tumors; details: Sawyer et al.; cited from earlier work
[4] = cited from earlier work
amphibian melanophores = details: Sawyer et al.; cited from earlier work
[5] = system: adenylate cyclase in Cloudman S-91 mouse melanoma tumors; assay: melanoma adenylate cyclase activity in vitro ([α-32P]ATP conversion to [32P]cAMP); assay type: biochemical
Method: (§2) The relative effects of α-MSH, [Nle^4 ]-α-MSH and [Nle^4, D-Phe^7 ]-α-MSH on mammalian melanoma adenylate cyclase activity in vitro were determined by assaying [^α-32 P] ATP conversion to [^32 P]cAMP in Cloudman S-91 mouse melanoma tumors as described in Sawyer, et al., supra. [^32 P]cAMP was isolated, purified and dectected according to Salomon et al., Anal. Biochem., 58, pp. 541-48 (1974).

[6] = system: Cloudman S-91 NCTC 3960 (CCL 53.1) melanoma cells; assay: tyrosinase activity of melanoma cells in tissue culture (3H2O release from [3H]tyrosine); assay type: cell-based, mouse; details: 0.1 μM melanotropin, exposure 0.5, 4 and 8 hr, then 24 hr with [3H]tyrosine; FIG. 2
Method: Cloudman S-91 NCTC 3960 (CCL 53.1) melanoma cells were obtained from the American Type Culture Collection Cell Repository and were grown and maintained as described in Fuller, et. al. Pigment Cell, 4 pp. 97-104 (1979). Melanoma cells (2×10^5) were seeded in 25 cm^2 flasks and allowed to attach overnight. At time t=0, the medium in all the flasks was replaced with 4 ml of medium containing 0.1 μM melanotropin (i.e., α-MSH, [Nle^4 ]-α-MSH, or [Nle^4, D-Phe^7 ]-α-MSH) or a control medium containing no melanotropin. At selected time intervals (t=0.5, 4, and 8 hr.) the control medium and melanotropin-containing medium was removed. The cells were carefully rinsed three times with fresh melanotropin-free medium and then exposed to fresh melanotropinfree medium containing [^3 H]-tyrosine (specific activity 48 Ci/mmol; 1 Ci=3.7×10^10 becquerels) at 1 μCi/ml. After 24 hr, this medium was removed and the tyrosinase activity of the melanoma cells was determined by assaying for the ^3 H2 O released from the [^3 H]tyrosine by the action of tyrosinase.
Tyrosinase activities are expressed as percent activity of control cells (i.e., cells not exposed to melanotropin). Each bar represents the mean of four determinations ±SEM.

[7] = system: frog (Rana pipiens) skin melanophores; assay: in vitro frog skin bioassay, duration of melanosome dispersion; assay type: cell-based
Method: Variation in biological effects of α-MSH analogues are generally discussed in terms of "potentiation" (increased activity relative to naturally-occurring α-MSH) and "prolongation". Such effects are measured by the classic frog skin bioassay system. See, Shizume, et al., Endocrinology, 54, 553-560 (1954). Because α-MSH has an extremely short half-life in serum (about 2 minutes), synthetic analogues having greater serum stability in addition to greater potency and prolongation characteristics have been sought.
[Nle^4, D-Phe^7 ]-α-MSH was examined with respect to the duration of its ability to stimulate melanosome dispersion in vitro using the frog (Rana pipiens) skin bioassay as described in Shizume, Endocrinology 54, 553-560 (1954).

[8] = system: lizard (Anolis carolinensis); assay: in vivo skin darkening in lizards after a single injection; details: 18 μg/10 g final body concentration
Excerpt: as §1

[9] = system: adenylate cyclase in Cloudman S-91 mouse melanoma tumors; assay: retention of adenylate cyclase activity after iodination; assay type: biochemical; details: iodinated through use of lacto peroxidase or iodogen
Method: as §2
The procedures of Hunter, et al., Nature, 194, pp. 495-496 (1962) were applied to [Nle^4, D-Phe^7 ]-α-MSH and the resultant compound was tested for adenylate cyclase activity as in Example 2.

[10] = cited from earlier work; remark: listed apart in the source
[11] = s.c., 18 μg/10 g, single injection

[D-Ser^1]-α-MSH
potency / activity relative to the natural hormone [1]: diminished potency | potency / activity relative to the natural hormone ([1]; listed as D-Ser^1): no more active than the native hormone

[D-Tyr^2 ]-α-MSH
potency / activity relative to the natural hormone [1]: significantly less potent; also recorded: diminished potency

[Nle^4 ]-α-MSH
duration of darkening effect compared with α-MSH (frog (Rana pipiens); [11]): effective for only a slightly longer period than α-MSH | loss of biological activity on incubation in serum-containing medium [2]: lost essentially all biological activity | potency in stimulating melanoma adenylate cyclase activity relative to α-MSH [3]: approximately twice as potent | biological activity upon subsequent exposure to sodium iodide ([4]; after chloramine-T, further contact with sodium iodide): inactivated; also recorded: loses activity | biological activity after chloramine-T treatment ([4]; chloramine-T, oxidant used in peptide iodination): resistant to inactivation; also recorded: retains activity | potency in dispersing amphibian melanophores relative to α-MSH (amphibian melanophores): approximately twice as potent

[Nle^4, D-Phe^7 ]-α-MSH
maximal adenylate cyclase activity compared with α-MSH and [Nle4]-α-MSH ([5]; FIG. 1): same maximal adenylate cyclase activity | potency in stimulating adenylate cyclase relative to the native hormone (α-MSH) ([5]; dose-response curves of FIG. 1, Cloudman S-91 mouse melanoma): 26 times | tyrosinase activity compared with α-MSH and [Nle4]-α-MSH [6]: much more active | duration of melanosome dispersion in vitro [7]: "prolonged" biological effect superior to α-MSH and [Nle^4 ]-α-MSH | degree of skin darkening in vivo (frog (Rana pipiens); s.c., 18 μg/10 g final body concentration): Maximum darkening | skin darkening remaining at 6 weeks (frog (Rana pipiens); s.c., 18 μg/10 g, 6 weeks after single injection): half-maximum darkening | darkening effect of lower dose compared with higher dose (frog (Rana pipiens); single injection, 0.18 μg/10 g versus 18 μg/10 g final body concentration): nearly as effective as the higher dose | duration of prolonged skin darkening [8]: about 3 days | loss of biological activity on incubation in serum-containing medium [2]: almost totally resistant to loss of biological activity | adenylate cyclase activity after iodination [9]: fully retained its activity

α-Melanotropin [α-MSH]
time by which the darkening effect was totally lost (frog (Rana pipiens); [11]): ≤ 2 days | biological activity upon oxidative iodination ([4]; iodination for radiolabelling): essentially inactivated; also recorded: loses biological activity | half-life in serum [10]: about 2 minutes
